From US20260259194A1, “METHOD OF MONITORING MESENCHIMAL STEM CELL (MSC) POTENCY AND IMPROVING MSC DIFFERENTIATION POTENTIAL” (AGENCY FOR SCIENCE, TECHNOLOGY AND RESEARCH, priority 2022, published 2026)

Legend:
Type in all cases: cell-based, human
MSCs [1] = assay: MSC proliferation with HOXA9 inhibitor; details: compared with DMSO control
Procedure: (§1) To validate the effects of HOXA9 knockdown on MSCs, effects of HOXA9 specific inhibitor DB818 on MSCs were determined.

MSCs [2] = assay: CFU-F (colony formation) of MSCs; details: compared with DMSO control
Procedure: as §1

MSCs [3] = assay: Three-lineage differentiation of MSCs, staining (oil red, AP, alcian blue); details: compared with DMSO control
Source text: (§2) Differentiation potential is the most important property of MSCs. To determine the effects of HOXA9 knockdown on the differentiation potential of MSCs into three lineages, HOXA9 knockdown and scrambled MSCs were induced into three lineages of differentiation. Compared with scrambled control, HOXA9 knockdown decreased oil red stain for oil droplet in adipogenesis, AP stain for alkaline phosphatase in osteogenesis and alcian blue stain for proteoglycan in chondrogenesis [FIG. 6a]. Stain data were validated by qPCR for lineage specific genes, compared with scrambled control, HOXA9 knockdown decreased adipogenenic genes (CEBPα, PPARγ, LPL and αP2), osteogenic genes (OC, OPN and ALP) and chondrogenic genes (COL2A1, AGC1, SOX9 and COL10A1) [FIG. 6b]. AP assay for quantifying alkaline phosphatase activity was consistent with AP stain, HOXA9 knockdown decreased alkaline phosphatase activity [FIG. 6b].
as §1

MSCs [4] = assay: qPCR for lineage specific genes in differentiated MSCs; details: compared with control
Source text: as §2, §1

## N=C(N)c1ccc(-c2ccc(-c3nc4ccc(C(=N)N)cc4[nH]3)s2)cc1 [DB818]
MSCs [1]
  MSC proliferation: abolished
MSCs [2]
  CFU-F: abolished
MSCs [3]; adipogenesis
  oil red stain for oil droplet in adipogenesis: decreased
MSCs [3]; chondrogenesis
  alcian blue stain for proteoglycan in chondrogenesis: decreased
MSCs [3]; osteogenesis
  AP stain for alkaline phosphatase in osteogenesis: decreased
MSCs [4]
  adipogenenic genes (CEBPα, PPARγ, LPL and αP2): decreased
  chondrogenic genes (COL2A1, AGC1, SOX9 and COL10A1): decreased
  osteogenic genes (RUNX2 and COL1A1): decreased
